Measured values reported in patent publication US11117855B2, “Crystalline form of triethylenetetramine tetrahydrochloride and its pharmaceutical use” (Orphalan S.A., priority 2018, dated 2021).
Several values for one entry are separate records, joined by “and”; a condition that tells them apart may be missing. Equal values may be shown once. Read-outs that look alike come from different tables or passages of the source.

Key:
[1] = Heckel test (compaction simulator, yield pressure, strain rate sensitivity); details: for Compact observations / Ejection Force / Peak Force of Upper punch / Yield Pressure: individual runs; for Yield pressure Slow (0.1 mm/s) / Yield pressure fast (300 mm/s): summary mean of runs; for Strain rate sensitivity: yield pressure at 300 mm/s compared to 0.1 mm/s
[2] = helium pycnometry; for True Density: individual runs; for True Density MEAN: mean of runs
Description: Determination of True Density by Helium Pychnometry.
Equipment used: Micromeritics AccuPyc II 1340
Run fill pressure 19.5 psig
Equilibration rate 0.02 psig
Percentage full scale 0.05%
Testing was performed in duplicate.

[3] = 25° C.; for DVS weight gain at high relative humidity: 90% RH and above; for DVS weight above reference weight after sorption/desorption cycle: end of second desorption stage (0-95% RH-0%)
Description: Dynamic Vapour Sorption (DVS) Analysis DVS analyses are performed using an SMS DVS Intrinsic analyser (serial number PF 140088) in open aluminium pans at 25° C. with a nitrogen purge gas at 100 ml/min. The stability criterion was a weight change lower than 0.002% on a 5 minute time frame (with a minimum of 10 min and a maximum of 100 min).

[4] = Description: Onset, Peak Temperatures and Enthalpies Thermogravimetric Analysis (TGA) Thermogravimetric analyses were performed using a Pyris 1 TGA analyser (serial number 537N7052501) in sealed aluminium pans, punctured before analysis, under nitrogen flush at 20 mL/min.
[5] = six months at 40° C. and 75% humidity
Description: TETA.4HC obtained in accordance with Reference Example 3 was compressed to form a tablet. The tablet was aged for six months at 40° C. and 75% humidity.

[6] = fast speed 300 mm/s, listed as Ref Example 3
[7] = slow speed 0.1 mm/s, listed as Ref Example 3

With `Cl.Cl.Cl.Cl.NCCNCCNCCN` [Example 2, triethylenetetramine tetrachloride] the Compact strength ([1]; fast speed 300 mm/s) was 9.83 Kiloponds and 11.58 Kiloponds and 8.88 Kiloponds, the Compact observations ([1]; fast speed 300 mm/s) was “Good shiny” and the “Ejection Force” value ([1]; fast speed 300 mm/s) was 0.441 kN and 0.456 kN and 0.417 kN. For the same compound, the “Peak Force of Upper punch” value ([1]; fast speed 300 mm/s) was 14.566 kN and 14.542 kN and 14.717 kN, the “Yield Pressure” value ([1]; fast speed 300 mm/s) was 129.865 Mpa and 129.108 Mpa and 129.861 Mpa and the Compact strength ([1]; slow speed 0.1 mm/s) was 12.07 Kiloponds and 7.52 Kiloponds and 9.64 Kiloponds and 9.19 Kiloponds. The Compact observations ([1]; slow speed 0.1 mm/s) was “Good shiny”, the “Ejection Force” value ([1]; slow speed 0.1 mm/s) was 0.044 kN and 0.053 kN and 0.080 kN and 0.060 kN and the “Peak Force of Upper punch” value ([1]; slow speed 0.1 mm/s) was 20.211 kN and 24.088 kN and 24.175 kN and 23.906 kN. The “Yield Pressure” value ([1]; slow speed 0.1 mm/s) was 106.465 Mpa and 117.516 Mpa and 118.116 Mpa and 115.227 Mpa, the “Yield pressure Slow (0.1 mm/s)” value [1] was 114.33 Mpa (±5.39) and the “Yield pressure fast (300 mm/s)” value [1] was 129.61 Mpa (±0.44). The Strain rate sensitivity [1] was 13.4%, the “True Density” value [2] was 1.3693 g/mL and 1.3973 g/mL and 1.3678 g/mL and the “True Density MEAN” value [2] was 1.3686 g/mL. For the same compound, the “DVS weight gain at high relative humidity” value [3] was at least 55.8%, the “DVS weight gain at high relative humidity” value ([3]; listed as Form B) was 50-59% and the “DVS weight above reference weight after sorption/desorption cycle” value [3] was “almost reaches its reference weight”. The “TGA weight loss (total)” value ([4]; 25-300° C., 10° C./min) was 10.24%, the “TGA weight loss starting temperature” value ([4]; 25-300° C., 10° C./min, nitrogen) was 225 °C and the TGA weight loss ([4]; between 225.0-289.5° C.) was 2.64%. For the same compound, the TGA weight loss ([4]; between 289.5-299.0° C.) was 7.60%.

In the case of `Cl.Cl.Cl.Cl.NCCNCCNCCN` [Reference Example 3, triethylenetetramine tetrachloride, reference compound], the Compact strength ([1]; fast speed 300 mm/s) is reported as 4-6 Kiloponds, the Compact observations [1, 6] is reported as “Good but blistering” and the “Ejection Force” value [1, 6] is reported as 0.421 kN and 0.327 kN and 0.381 kN. For the same compound, the “Peak Force of Upper punch” value [1, 6] was 14.644 kN and 14.752 kN and 14.617 kN, the “Yield Pressure” value [1, 6] was 127.197 Mpa and 125.309 Mpa and 129.748 Mpa and the Compact strength [1, 6] was 6.59 Kiloponds and 4.27 Kiloponds and 4.75 Kiloponds. The Compact strength ([1]; slow speed 0.1 mm/s) was 6-11 Kiloponds, the Compact observations [1, 7] was “Good” and the “Ejection Force” value [1, 7] was 0.039 kN and −0.007 kN and −0.020 kN. The “Peak Force of Upper punch” value [1, 7] was 20.830 kN and 18.543 kN and 19.570 kN, the “Yield Pressure” value [1, 7] was 101.529 Mpa and 95.501 Mpa and 97.474 Mpa and the Compact strength [1, 7] was 6.41 Kiloponds and 7.45 Kiloponds and 11.17 Kiloponds. The “Yield pressure Slow (0.1 mm/s)” value ([1]; listed as Ref Example 3) was 98.17 Mpa, the “Yield pressure fast (300 mm/s)” value ([1]; listed as Ref Example 3) was 127.42 Mpa and the Strain rate sensitivity ([1]; listed as Ref Example 3) was 29.8%. The “True Density” value ([2]; listed as Ref Example 3) was 1.3523 g/mL and 1.3431 g/mL, the “True Density MEAN” value ([2]; listed as Ref Example 3) was 1.3477 g/mL and the “DVS weight gain at high relative humidity” value ([3]; listed as Ref Example 3) was at least 60.8%. For the same compound, the “DVS weight above reference weight after sorption/desorption cycle” value ([3]; listed as Form A) was 14-15%, the “DVS weight above reference weight after sorption/desorption cycle” value ([3]; listed as Ref Example 3) was 14.4% and the “DVS weight above reference weight, minimum value reached” value ([3]; second desorption stage) was 7.9%. For the same compound, the “Tablet appearance after aging” value [5] was “discoloured patches”.
